In article PMC11357256, “Selectivity Screening and Structure–Cytotoxic Activity Observations of Selected Oleanolic Acid (OA)-Type Saponins from the Amaranthaceae Family on a Wiade Panel of Human Cancer Cell Lines” (Molecules, 2024):
Read-outs that look alike come from different tables or passages of the source.

Columns and labels:
[1] = test system: HaCaT; assay: MTT cell viability assay, HaCaT keratinocytes; assay type: cell-based; conditions: Homo sapiens
Source text: (§1) Cell lines used in the study were grouped as follows: skin panel (melanomas: HTB140, derived from metastatic site: lymph node, ATCC Hs 294 T; malignant A375, ATCC CRL-1619; stage I primary WM793, RRID:CVCL 8787; skin keratinocytes HaCaT); prostate panel (prostate carcinomas: Du145, derived from metastatic site: brain, ATCC HTB-81; grade IV PC3, derived from metastatic site: bone, ATCC CRL-1435, LNCaP, derived from the metastatic site: lymph node, ATCC CRL-1740; prostate epithelial, PNT2, ECACC 95012613); gastrointestinal panel (colorectal adenocarcinomas: Caco2, ATCC HTB-37, HT29, ATCC HTB-38, DLD-1, ATCC CCL-221, HCT116, ATCC CCL-247, and colon epithelial cells CCD 841 CoN, ATCC CRL-1790; hepatocellular carcinoma HepG2, ATCC HB-8065); thyroid panel (follicular thyroid carcinoma FTC133, ECACC 9406090, undifferentiated thyroid carcinoma 8505C, ECACC 94090184, papillary thyroid carcinoma TPC-1, SCC147, normal thyroid follicular epithelial Nthy-ori 3–1, ECACC 90011609); and breast panel (ER-positive breast adenocarcinoma MCF7, ATCC HTB-22; ER-negative breast adenocarcinoma MDA-MB-231, ATCC HTB-26; breast epithelial MCF10A, ATCC CRL-10317). Cells were grown under standard conditions (37 °C, 5% CO2, relative humidity), and culture media (DMEM/F12 for PNT2, WM 793, HT29, PC3, FTC133, 8505 C, MDA-MB-231, TPC-1; DMEM Low Glucose for DU145; DMEM High Glucose for HTB140, A375, HaCaT; MEM with NEAA for Caco2 and MCF7; RPMI1640 with sodium pyruvate for LNCaP; DMEM/F12 with 20 ng/mL epidermal growth factor (EGF), 10 μg/mL insulin, 0.5 μg/mL hydrocortisone, 100 ng/mL cholera toxin) for MCF10A) supplemented with 10% fetal bovine serum (FBS) or 5% donor horse serum for MCF10A, and 1% antibiotics solution (10,000 U penicillin and 10 mg streptomycin/mL) […], as previously described. All cell lines, culture media, and supplements were from Sigma-Aldrich (Germany).
(§2) The cells were seeded in 96-well plates (1.5 × 10^4 cells/well). After 24 h, fresh medium was added, containing the tested compounds (0.5–100 μg/mL) and incubated for 24 or 48 h. Cell viability was determined by MTT assay, according to the manufacturer’s instructions, as described previously. Each experiment was performed in triplicate. The absorbance was measured at 570 nm using a Biotek Synergy microplate reader (BioTek Instruments Inc., Winooski, VT, USA). Cell viability was expressed as a percent of control (untreated cells). Doxorubicin was used as a reference drug.

[2] = test system: WM793; assay: MTT cell viability assay, WM793 primary melanoma cells; assay type: cell-based, human; conditions: for IC50: Homo sapiens
Source text: as §1, §2
(§3) The selectivity index (SI) was calculated from the following formula:SI = IC50 of compound in a normal cell line/IC50 of compound in cancer cell line.IC50, half maximal inhibitory concentration, is a concentration required to kill 50% of the cells.

[3] = test system: MDA-MB-231; assay: MTT cell viability assay, MDA-MB-231 breast adenocarcinoma cells; assay type: cell-based; conditions: Homo sapiens
Source text: as §1, §2

[4] = test system: LNCaP; assay: MTT cell viability assay, LNCaP prostate adenocarcinoma cells; assay type: cell-based; conditions: Homo sapiens
Source text: as §1, §2

[5] = test system: DLD-1; assay: MTT cell viability assay, DLD-1 colon cancer cells; assay type: cell-based; conditions: Homo sapiens
Source text: as §1, §2

[6] = test system: HepG2; assay: MTT cell viability assay, HepG2 hepatocellular carcinoma cells; assay type: cell-based; conditions: Homo sapiens
Source text: as §1, §2

[7] = test system: MCF7; assay: MTT cell viability assay, MCF7 breast adenocarcinoma cells; assay type: cell-based; conditions: Homo sapiens
Source text: as §1, §2

[8] = test system: TPC-1; assay: MTT cell viability assay, TPC-1 papillary thyroid carcinoma cells; assay type: cell-based, human; conditions: for IC50: Homo sapiens, TPC1
Source text: as §1, §2, §3

[9] = test system: HCT116; assay: MTT cell viability assay, HCT116 colon cancer cells; assay type: cell-based; conditions: Homo sapiens, HCT-116
Source text: as §1, §2

[10] = test system: MCF-7 cells; conditions: cited from earlier work
[11] = test system: FTC133; assay: MTT cell viability assay, FTC133 follicular thyroid carcinoma cells; assay type: cell-based, human; conditions: for IC50: Homo sapiens, FTC-133
Source text: as §1, §2, §3

[12] = test system: PC3; assay: MTT cell viability assay, PC3 prostate carcinoma cells; assay type: cell-based; conditions: Homo sapiens, PC-3
Source text: as §1, §2

[13] = test system: HT29; assay: MTT cell viability assay, HT29 colorectal adenocarcinoma cells; assay type: cell-based; conditions: Homo sapiens, HT-29
Source text: as §1, §2

[14] = test system: Caco-2; assay: MTT cell viability assay, Caco-2 colon cancer cells; assay type: cell-based; conditions: Homo sapiens
Source text: as §1, §2

[15] = test system: Nthy-ori 3-1; assay: MTT cell viability assay, Nthy-ori 3-1 normal thyroid epithelial cells; assay type: cell-based; conditions: Homo sapiens
Source text: as §1, §2

[16] = test system: A375; assay: MTT cell viability assay, A375 malignant melanoma cells; assay type: cell-based, human; conditions: for IC50: Homo sapiens, A-375
Source text: as §1, §2, §3

[17] = test system: PNT2; assay: MTT cell viability assay, PNT2 normal prostate epithelial cells; assay type: cell-based; conditions: Homo sapiens
Source text: as §1, §2

[18] = test system: Du-145; assay: MTT cell viability assay, Du-145 prostate carcinoma cells; assay type: cell-based; conditions: Homo sapiens
Source text: as §1, §2

[19] = test system: CCD 841 CoN; assay: MTT cell viability assay, CCD 841 CoN normal colon epithelial cells; assay type: cell-based; conditions: Homo sapiens
Source text: as §1, §2

CC1(C)CCC2(C(=O)O)CCC3(C)C(=CCC4C5(C)CCC(OC6OC(C(=O)O)C(O)C(O)C6O)C(C)(C)C5CCC43C)C2C1 [CE, oleanolic acid-3-O-β-D-glucuronopyranoside]
IC50 ([1]; 24 h): 5.1 µg/mL | IC50 ([1]; 48 h): 2 µg/mL | IC50 ([2]; WM793, 24 h): 2.4 µg/mL | IC50 ([2]; WM793, 48 h): 1.2 µg/mL | Selectivity Index (SI) ([2]; IC50 HaCaT / IC50 WM793, 24 h): 2.1 | Selectivity Index (SI) ([2]; IC50 HaCaT / IC50 WM793, 48 h): 1.6 | IC50 ([3]; MDA-MB-231, 24 h): 69.6 µg/mL | IC50 ([3]; MDA-MB-231, 48 h): 23.5 µg/mL | IC50 ([4]; 24 h): > 100 µg/mL | IC50 ([4]; 48 h): > 100 µg/mL | IC50 ([5]; DLD-1, 24 h): 31.2 µg/mL | IC50 ([5]; DLD-1, 48 h): 9 µg/mL | IC50 ([6]; HepG2, 24 h): 16.5 µg/mL | IC50 ([6]; HepG2, 48 h): 6.9 µg/mL | IC50 ([7]; MCF7, 24 h): > 100 µg/mL | IC50 ([7]; MCF7, 48 h): 39.5 µg/mL | IC50 ([8]; TPC-1, 24 h): 8.5 µg/mL | IC50 ([8]; TPC-1, 48 h): 5.8 µg/mL | Selectivity Index (SI) ([8]; IC50 Nthy-ori 3-1 / IC50 TPC-1, 24 h): 9.0 | Selectivity Index (SI) ([8]; IC50 Nthy-ori 3-1 / IC50 TPC-1, 48 h): 5.1 | IC50 ([9]; HCT116, 24 h): 14.3 µg/mL | IC50 ([9]; HCT116, 48 h): 10.2 µg/mL | IC50 ([10]; 48 h, ref 13): 35.4 µg/mL | IC50 ([10]; 48 h, ref 14, read-out: IC50): 19.7 µM | IC50 ([10]; 72 h, read-out: IC50): 13.4 µM | IC50 ([11]; FTC133, 24 h): 1.9 µg/mL | IC50 ([11]; FTC133, 48 h): 1.1 µg/mL | Selectivity Index (SI) ([11]; IC50 Nthy-ori 3-1 / IC50 FTC133, 24 h): 38.6 | Selectivity Index (SI) ([11]; IC50 Nthy-ori 3-1 / IC50 FTC133, 48 h): 28.1 | IC50 ([12]; PC3, 24 h): 5.6 µg/mL | IC50 ([12]; PC3, 48 h): 2.9 µg/mL | IC50 ([13]; HT29, 24 h): 4.5 µg/mL | IC50 ([13]; HT29, 48 h): 2 µg/mL | IC50 ([14]; Caco-2, 24 h): 2 µg/mL | IC50 ([14]; Caco-2, 48 h): 1 µg/mL | IC50 ([15]; 24 h): 76 µg/mL | IC50 ([15]; 48 h): 30.1 µg/mL | IC50 ([16]; A375, 24 h): 1.8 µg/mL | IC50 ([16]; A375, 48 h): 0.8 µg/mL | Selectivity Index (SI) ([16]; IC50 HaCaT / IC50 A375, 24 h): 2.9 | Selectivity Index (SI) ([16]; IC50 HaCaT / IC50 A375, 48 h): 2.6 | IC50 ([17]; 24 h): > 100 µg/mL | IC50 ([17]; 48 h): > 100 µg/mL | IC50 ([18]; DU-145, 24 h): 6.7 µg/mL | IC50 ([18]; DU-145, 48 h): 4.3 µg/mL | IC50 ([19]; 24 h): > 100 µg/mL | IC50 ([19]; 48 h): > 100 µg/mL
